These results are taken from PMC7906020, “Trp-Containing Antibacterial Peptides Impair Quorum Sensing and Biofilm Development in Multidrug-Resistant Pseudomonas aeruginosa and Exhibit Synergistic Effects With Antibiotics” (Frontiers in Microbiology, 2021).

Each structure is given as a SMILES string. ≈ marks a conversion by molar mass, not a printed value. Where “and” joins values, the source holds several entries; their conditions need not be identical. Identical values can stand only once. Peptide text beside a SMILES is read from it. A value given as a limit tells only on which side of the number the result lay.

In one series the test system is MRPA0108 biofilms. Description: Confocal laser scanning microscopy of biofilms (LIVE/DEAD staining). Type of series: cell-based, Pseudomonas aeruginosa. The following applies: 24 h; for percentage of dead/live cells in biofilm: SYTO9/PI, control 8.7%. Here is the method: Biofilms of MRPA0108 were visualized by confocal microscopy. Mid-log growth-phase bacteria were diluted to 1 × 10^7 CFU/ml. […] LB liquid medium and erythromycin were used as negative and positive controls, respectively. After incubation, the supernatant was removed, and the slides were washed and stained in a dark environment for 30 min using a LIVE/DEAD BacLight^TM Bacterial Viability Kit (Invitrogen, Life Technologies, Shanghai, China). The slides were washed three times and imaged with a confocal laser scanning microscope (LSM 710, Carl Zeiss, Germany) with excitation/emission wavelengths of 480/500 and 490/635 nm for SYTO9 and propidium iodide (PI), respectively. SYTO9 was used to indicate live bacteria, and PI was used to mark dead bacteria.

Series [1] has as its system pyocyanin production in MRPA0108. Kind of series: Pyocyanin production assay. The format is cell-based, Pseudomonas aeruginosa. The following applies: peptide at 1/4 × MIC, 24 h; OD 520 nm; vs untreated control; triplicate. The method, then: The culture supernatant was obtained after centrifugation at 12,000×g for 10 min. (1) LasB elastase activity was measured using elastin-Congo red (ECR) as the substrate, as described by [Pattnaik et al. (2018)]. Briefly, 100 μl of the culture supernatant was added to 900 μl of ECR buffer (100 mM Tris-HCl, 1 mM CaCl2, pH 7.5) containing 10 mg of ECR and then incubated with shaking at 37°C for 18 h. Then, 100 μl of 0.12 M EDTA was added to stop the reaction. The insoluble ECR was removed by centrifugation, and the supernatant absorbance was measured at 495 nm. The optical density (OD) 495 nm/OD 600 nm represents the elastase activity. (2) LasA protease activity was measured as follows ([Pattnaik et al., 2018]): first, the culture supernatant was filtered to remove the bacterial cells, and then 150 μl of sterile-filtered supernatant was added to 2% azocasein (prepared in 50 mM Tris-HCl) and incubated for 4 h at 37°C. […] After centrifugation at 10,000 rpm for 10 min, 1 M NaOH was added to the supernatant, and the relative protease activity was measured at OD 440 nm. (3) The pyocyanin assay was based on the absorbance of excreted pyocyanin at 520 nm in an acidic solution ([Kong et al., 2005]). […] The OD 520 nm was measured to evaluate the change in pyocyanin content. […] The absorbance was measured at 420 nm. (5) The level of C4-HSL was quantified by GC-MS as previously described ([Guo et al., 2012]).

The next series relates to MRPA0108 strain. Particulars: previous study, ref Han et al., 2020; cited from earlier work. The source says:
Supplement Table_1.docx, table 1: Table S1 Biological characteristics and antibacterial activities of the Trp-containing antimicrobial peptides (32) | column: MIC(μM)

In series [2] the test system is alginate production in MRPA0108. Description: Alginate determination, H2SO4-carbazole method. Type of series: cell-based, Pseudomonas aeruginosa. The following applies: OD 530 nm. The method, then:
(§1) Exopolysaccharides were determined using the phenol-H2SO4 method. Briefly, after incubation, the cultures were centrifuged at 10,000 rpm for 15 min, and the pellets were resuspended in high-salt buffer (10 mM KPO4, 5 mM NaCl, 2.5 mM MgSO4, pH 7.0), followed by recentrifugation at 10,000 rpm for 30 min. The resulting supernatant was mixed with three volumes of chilled ethanol (100%) and incubated overnight at 4°C. The precipitated exopolysaccharide was added to a mixture containing cold phenol and H2SO4, and the absorbance of the solution was measured at 490 nm. Alginate content was determined using the H2SO4-carbazole method. Briefly, after incubation, the precooled cultures were mixed with an H2SO4 solution (4:1) and vortexed in ice water, and then 0.2% carbazole dissolved in ethanol was added. The mixture was revortexed and incubated at 55°C for 30 min, and the OD 530 nm was measured.

The test system of series [3] is rhamnolipid production in MRPA0108. Description: Rhamnolipid production, orcinol method. The format is cell-based, Pseudomonas aeruginosa. Particulars: peptide at 1/4 × MIC, 24 h, absorbance 420 nm, vs control, triplicate. The method, then: The culture supernatant was obtained after centrifugation at 12,000×g for 10 min. (1) LasB elastase activity was measured using elastin-Congo red (ECR) as the substrate, as described by [Pattnaik et al. (2018)]. Briefly, 100 μl of the culture supernatant was added to 900 μl of ECR buffer (100 mM Tris-HCl, 1 mM CaCl2, pH 7.5) containing 10 mg of ECR and then incubated with shaking at 37°C for 18 h. Then, 100 μl of 0.12 M EDTA was added to stop the reaction. The insoluble ECR was removed by centrifugation, and the supernatant absorbance was measured at 495 nm. The optical density (OD) 495 nm/OD 600 nm represents the elastase activity. (2) LasA protease activity was measured as follows ([Pattnaik et al., 2018]): first, the culture supernatant was filtered to remove the bacterial cells, and then 150 μl of sterile-filtered supernatant was added to 2% azocasein (prepared in 50 mM Tris-HCl) and incubated for 4 h at 37°C. Trichloroacetic acid (TCA, 10%) was added to precipitate the undigested substrate. After centrifugation at 10,000 rpm for 10 min, 1 M NaOH was added to the supernatant, and the relative protease activity was measured at OD 440 nm. (3) The pyocyanin assay was based on the absorbance of excreted pyocyanin at 520 nm in an acidic solution ([Kong et al., 2005]). Three milliliters of culture supernatant were mixed with 2 ml of chloroform for 20 min, and then the pyocyanin from the chloroform phase was reextracted using 0.2 M HCl for 15 min to obtain a pink-colored pyocyanin solution. The OD 520 nm was measured to evaluate the change in pyocyanin content. (4) Rhamnolipid detection was carried out as previously described ([Wittgens et al., 2011]). Briefly, 500 μl of culture supernatant was mixed with 500 μl of ethyl acetate and vortexed vigorously for 15 s to extract rhamnolipid. After centrifugation at 10,000×g for 5 min at 4°C, the organic phase containing rhamnolipids was obtained and evaporated at room temperature overnight. The rhamnolipid extract dissolved in ultrapure water was mixed with orcinol reagent (0.19% orcinol in 53% H2SO4) and incubated at 80°C for 30 min. The absorbance was measured at 420 nm. (5) The level of C4-HSL was quantified by GC-MS as previously described ([Guo et al., 2012]).

The conditions of series [4]: cited from earlier work. The text has this:
Supplement Table_1.docx, table 1: Table S1 Biological characteristics and antibacterial activities of the Trp-containing antimicrobial peptides (32) | column: Hemolysis (μM)

In series [5] the test system is exopolysaccharide production in MRPA0108. Kind of series: Exopolysaccharide determination, phenol-H2SO4 method. The format is cell-based, Pseudomonas aeruginosa. Particulars: phenol-H2SO4, 490 nm. Here is the method:
as §1

Another series concerns MRPA0108 cells. Kind of series: Intracellular antibiotic assay by HPLC. Type of series: cell-based, Pseudomonas aeruginosa. Particulars: RP-HPLC of cell lysate. The method, then:
Mid-log growth-phase bacteria were diluted to 1 × 10^8 CFU/ml and treated with I1W or L12W at concentrations ranging from 3.13 to 50 μM for 12 h at 37°C. After induction, the cultures were harvested by centrifugation at 12,000 rpm for 2 min, washed three times with PBS buffer (pH 7.2), and then incubated with lysozyme (20 mg/ml) at 37°C for 1 h in a water bath. After centrifugation at 12,000 rpm for 5 min, the supernatant of the cell lysates was collected, added to methanol (1:3) and vortexed to precipitate proteins. After recentrifugation at 12,000 rpm for 5 min, the supernatant was measured by using HPLC with a mobile phase of 0.1% trifluoroacetic acid/methanol (92:8, v/v) and a flow rate of 0.7 ml/min.

Setting [6] is: range over peptide 3.13 to 50 μM, 12 h 37°C.

Usually MIC stands for the lowest concentration that inhibits growth of the organism. Consider `CC[C@H](C)[C@H](NC(=O)[C@H](CCCCN)NC(=O)[C@H](CO)NC(=O)[C@H](CC(C)C)NC(=O)[C@@H](NC(=O)[C@H](CCCCN)NC(=O)[C@H](CCCCN)NC(=O)[C@@H](N)Cc1c[nH]c2ccccc12)[C@@H](C)CC)C(=O)N[C@@H](CCCCN)C(=O)N[C@@H](CCCCN)C(=O)N[C@@H](CC(C)C)C(=O)N[C@@H](CC(C)C)C(=O)N[C@@H](CCCCN)C(N)=O` [I1W] (H-WKKILSKIKKLLK-NH2; N-terminus and C-terminus assumed), for which the average biofilm thickness with MRPA0108 biofilms (after treatment with low concentrations of peptide (1 × MIC or 2 × MIC), 37°C, control biofilm 6 μm) is 1.5–2.5 μm and 1.5 μm. Moreover, the results for the “percentage of dead/live cells in biofilm” value in the series on MRPA0108 biofilms (peptide at 1 × MIC) and with MRPA0108 biofilms (peptide at 2 × MIC) were 29.9% and 47.9%, respectively. In series [1], the “reduction of pyocyanin production” value is on record as 73.7%. Besides, in the series with MRPA0108 strain, the MIC is 6.25 µM (≈ 10.2 µg/mL). In addition, the “inhibition of alginate production” value in series [2] (peptide at 1/4 × MIC) is recorded as 53%; in series [2] (peptide at 1 × MIC), 74%. The “inhibition of rhamnolipid production” value in series [3] is recorded as 45.2%. The Hemolysis in series [4] was above 500 µM. The “reduction of exopolysaccharide production” value is 26.3% in series [5] (peptide at 1/4 × MIC, overnight 37°C); 67.3% in series [5] (peptide at 1 × MIC); 42.6% in series [5] (peptide concentration increased onefold from 1/4 × MIC). In addition, the results for the “increase of ceftazidime content in MRPA0108 cells” value in the series with MRPA0108 cells (peptide at its MIC) and in the series on MRPA0108 cells (setting [6]) were 19% and 7.5-100%, respectively. In addition, the entries for the “increase of levofloxacin content in MRPA0108 cells” value with MRPA0108 cells (peptide at its MIC) and with MRPA0108 cells (setting [6]) were 1% and 0.01–22%, respectively. For the same molecule, the entries for the “increase of piperacillin content in MRPA0108 cells” value in the series on MRPA0108 cells (peptide at its MIC) and with MRPA0108 cells (setting [6]) were 17% and 8–80%, respectively.
